Laboratory results reported in PMC11389391, “Acetylation of SAMHD1 at lysine 580 is crucial for blocking HIV-1 infection” (mBio, 2024).

Target: T1, SAMHD1_114-626 (Homo sapiens, UniProt Q9Y3Z3)
T1 construct: gene SAMHD1; purified recombinant residues 114-626 (HD domain and C-terminus, SAM domain removed); monomer without nucleotides, tetramer with GTP/dTTP
Experiment: 1H NMR dTTP hydrolysis rate versus GTP concentration
Type: biochemical
Excerpt: 1H NMR dTTP hydrolysis rate versus GTP concentration on SAMHD1_114-626 | we determine the EC50^GTP (half-maximal effective concentration) and kcat

T1 sequence (Q9Y3Z3 114-626): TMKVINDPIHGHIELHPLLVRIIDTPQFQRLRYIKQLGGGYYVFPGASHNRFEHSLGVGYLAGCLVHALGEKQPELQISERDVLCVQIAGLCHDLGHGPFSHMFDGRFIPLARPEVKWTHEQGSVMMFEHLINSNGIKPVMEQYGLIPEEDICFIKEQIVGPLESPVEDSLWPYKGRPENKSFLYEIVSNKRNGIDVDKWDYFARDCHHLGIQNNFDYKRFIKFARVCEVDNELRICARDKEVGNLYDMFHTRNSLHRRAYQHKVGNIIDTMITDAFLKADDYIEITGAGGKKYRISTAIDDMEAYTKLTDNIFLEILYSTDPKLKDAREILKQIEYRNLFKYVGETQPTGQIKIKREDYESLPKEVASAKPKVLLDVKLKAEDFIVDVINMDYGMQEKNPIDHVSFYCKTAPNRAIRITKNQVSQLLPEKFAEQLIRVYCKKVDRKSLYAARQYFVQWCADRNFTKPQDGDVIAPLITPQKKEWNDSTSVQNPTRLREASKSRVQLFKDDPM

- EC50: 1700 nM
Compound: Nc1nc2c(ncn2[C@@H]2O[C@H](COP(=O)(O)OP(=O)(O)OP(=O)(O)O)[C@@H](O)[C@H]2O)c(=O)[nH]1 [GTP]
